US20050227982A1, “Antileishmanial dinitroaniline sulfanomides with activity against parasite tubulin” (priority 2002, published 2005)
Like-named read-outs stand apart in the source and are kept apart here.

What was measured:
[1] = tested on: L. donovani axenic amastigotes; experiment: Growth inhibition of L. donovani axenic amastigotes (three-day tetrazolium dye assay); format: cell-based, Leishmania donovani; details: read-out: IC50, L. donovani axenic amastigotes
Method: 2000, 110, 223-236, incorporated herein by reference.^14
(§1) Determination of the drug susceptibility of parasites and mammalian cells. The susceptibility of Leishmania donovani amastigote-like parasites (WHO designation: MHOM/SD/62/1S-CL2D) to growth inhibition by compounds of interest was measured in a three-day assay using the tetrazolium dye-based CellTiter reagent (Promega) (Werbovetz, K., Brendle, J., and Sackett, D. (1999) Mol. Biochem. Parasitol. 98, 53-65., and Havens, C., Bryant, N., Asher, L., Lamoreaux, L., Perfetto, S., Brendle, J., and Werbovetz, K. (2000) Mol. Biochem. Parasitol. 110, 223-236). The amastigote medium used in this assay is based on the medium mentioned by Joshi et al. (Joshi, M., Dwyer, D. M., and Nakhasi, H. L. (1993) Mol. Biochem. Parasitol. 58, 345-354). Prior to addition of fetal bovine serum to a final concentration of 20%, this amastigote medium contains 15 mM KCl, 115 mM KH2PO4, 10 mM K2HPO4, 0.5 mM MgSO4, 24 mM NaHCO3, a 1-concentration of RPMI-1640 vitamins and amino acids, 2.0 mM L-glutamine, 22 mM D-glucose, 100 units/mL penicillin, 100 ∝g/ml streptomycin, 0.1 mM adenosine, 1 ∝g/mL folate, and 25 mM MES (pH 5.5). Compounds were tested for their activity against bloodstream-form Trypanosoma brucei brucei (MITat 1.2, variant 221) axenically-cultured in HMI-9 medium , H., and Hirumi, K. (1989) J. Parasitol. 75, 985-989.) following the procedure of Ellis et al. (Ellis, J., Fish, W., Sileghem, M., and McOdimba, F. (1993) Vet. Parasitol. 50, 143-149.) with some modifications. Briefly, 100 μL of late log phase parasites were incubated in 96-well plates (Costar) at an initial concentration of 10^5 cells/ml with or without test compounds at 37° C. in a humidified 5% CO2 atmosphere for 72 hours. Twenty-five μL of a 5 mg/mL solution of MTT (prepared in phosphate buffered saline and filter sterilized) was then added to each well and plates were re-incubated at 37° C. as before for 2 h. One hundred ∝L of 20% SDS lysis buffer (prepared in 50% aqueous DMF) was added to each well and plates were incubated as before for an additional 3-4 h. Optical densities were then measured at 570 nm using SpectraMax Plus microplate reader. […] Assessment of the in vitro sensitivity of T. b. brucei Lab 110 EATRO and P. falciparum strains to compounds was performed by methods described in Donkor et al. (Donkor, I., Assefa, H., Rattendi, D., Lane, S., Vargas, M., Goldberg, B., and Bacchi, C. (2001) Eur. J. Med. Chem. 36, 531-538.) and Guan et al. (Guan, J., Kyle, D., Gerena, L., Zhang, Q., Milhous, W., and Lin, A. (2002) J. Med. Chem. 45, 2741-2748).

[2] = tested on: Trypanosoma brucei brucei (MITat 1.2, variant 221); experiment: microbe, parasite or virus in culture; format: cell-based; details: read-out: IC50, T. b. brucei variant 221
Method: as §1

J774 murine macrophages = experiment: Toxicity to J774 macrophages (three-day CellTiter assay); format: cell-based; details: read-out: IC50, J774 macrophages
Method: The toxicity of compounds to J774 murine macrophages and PC3 […] cells was measured in a three-day assay using the CellTiter reagent. […] Macrophages were allowed to adhere for 24 hours, then the medium was removed and replaced with serial dilutions of the test compounds in the DMEM medium mentioned above without phenol red. After 72 hr incubation with the test compounds at 37° C. in a humidified 5% CO2 incubator, cell viability was determined using the CellTiter reagent by adding 20 μL of assay solution to each well. After a 6-7 h incubation at 37° C. to allow for color development, the absorbance of each well at 490 nm was measured in a SpectraMax Pro microplate reader (Molecular Devices). The toxicity of compounds to PC3 cells was assessed in the same manner as for the macrophages, except that the medium used was RPMI 1640 supplemented with 10% heat inactivated fetal calf serum, 2.0 mM L-glutamine, 50 units/mL penicillin, and 50 ∝g/mL streptomycin. IC50 values for the J774 and PC3 assays were determined with the software program SoftMax Pro as described earlier.

[3] = unit inferred, three-day tetrazolium dye assay

Compound	IC50 [1, 3] [µM]	IC50 ([2]; unit inferred) [µM]	IC50 (J774 murine macrophages; unit inferred) [µM]	IC50 (J774 murine macrophages) [µM]	IC50 [1] [µM]	IC50 [2] [µM]	IC50 ([2]; Trypanosoma brucei, unit inferred) [µM]
CCCN(CCC)c1c([N+](=O)[O-])cc(S(=O)(=O)N(C)C)cc1[N+](=O)[O-] [Compound 34, N1,M1-Dimethyl-3,5-dinitro-N4,N4-di-n-propylsulfonilamide]	> 100	5.9	–	–	–	–	–
CCCN(CCC)c1c([N+](=O)[O-])cc(S(=O)(=O)Nc2ccc(OC)cc2)cc1[N+](=O)[O-] [Compound 39, N1-(4-Methoxy)phenyl-3,5-dinitro-N4,N4-di-n-Propylsulfonilamide]	31.9 ± 14.6	20.5	15.2 ± 6.7	–	–	–	–
CCCN(CCC)c1c([N+](=O)[O-])cc(S(=O)(=O)Nc2ccc(Cl)cc2)cc1[N+](=O)[O-] [Compound 41, N1-(4-Chloro)phenyl-3,5dinitro-N4,N4-di-n-propylsulfonilamide]	13.3 ± 3	9.5	9.13 ± 3.81	–	–	–	–
CCCN(CCC)c1c([N+](=O)[O-])cc(S(=O)(=O)NC)cc1[N+](=O)[O-] [Compound 33, N1-Methyl-3,5-dinitro-N4,N4di-n-propylsulfonilamide]	> 100	4.6	–	–	–	–	–
CCCN(CCC)c1c([N+](=O)[O-])cc(S(=O)(=O)Nc2ccccn2)cc1[N+](=O)[O-] [Compound 46, N1-(2-Pyridinyl)-3,5-dinitro-N4,N4-di-n-propylsulfonilamide]	59.7 ± 6.2	10.9	44.9 ± 16.3	–	–	–	–
N1-(3-Methyl)phenyl-3,5-dinitro-N4,N4-di-n-propylsulfonilamide [Compound 42]	–	–	–	15.8 ± 2.1	22.7 ± 0.8	0.92	–
CCCN(CCC)c1c([N+](=O)[O-])cc(S(=O)(=O)Nc2cccc(OC)c2)cc1[N+](=O)[O-] [Compound 30, N1-(3-Methoxy)phenyl-3,5-dinitro-N4,N4-di-n-propylsulfonilamide]	8.11 ± 3.33	0.5	25.3 ± 3.8	–	–	–	–
CCCN(CCC)c1c([N+](=O)[O-])cc(S(=O)(=O)NC(C)C)cc1[N+](=O)[O-] [Compound 38, N1-Isopropyl-3,5-dinitro-N4,N4-di-n-propylsulfonilamide]	42.8 ± 2.3	2.5	–	–	–	–	–
CCCN(CCC)c1c([N+](=O)[O-])cc(S(=O)(=O)Nc2cc(Cl)cc(Cl)c2)cc1[N+](=O)[O-] [Compound 45, N1-(3,5-Dichloro)phenyl-3,5-dinitro-N4,N4-di-n-propylsulfonilamide]	3.71 ± 0.91	3.4	5.12 ± 0.35	–	–	–	–
Cc1ccc(C(=O)Nc2ccc(S(=O)(=O)O)c3cc(S(=O)(=O)O)cc(S(=O)(=O)O)c23)cc1NC(=O)c1cccc(NC(=O)Nc2cccc(C(=O)Nc3cc(C(=O)Nc4ccc(S(=O)(=O)O)c5cc(S(=O)(=O)O)cc(S(=O)(=O)O)c45)ccc3C)c2)c1 [Suramin, reference compound]	–	–	–	–	–	–	0.233 ± 0.05
CCCN(CCC)c1c([N+](=O)[O-])cc(S(=O)(=O)N(CC)CC)cc1[N+](=O)[O-] [Compound 36, N1,N1-Diethyl-3,5-dinitro-N4,N4-di-n-propylsulfonilamide]	26.7 ± 0.4	10.2	–	–	–	–	–
CCCN(CCC)c1c([N+](=O)[O-])cc(S(=O)(=O)Nc2cccc(Cl)c2)cc1[N+](=O)[O-] [Compound 43, N1-(3-Chloro)phenyl-3,5-dinitro-N4,N4-di-n-propylsulfonilamide]	5.47 ± 0.1	0.88	8.67 ± 0.17	–	–	–	–
CCN(CC)c1c([N+](=O)[O-])cc(S(=O)(=O)Nc2ccccc2)cc1[N+](=O)[O-] [Compound 31, N1-Phenyl-3,5-dinitro-N4,N4-di-n-ethylsulfonilamide]	10.6 ± 2.6	1.9	47.7 ± 1.6	–	–	–	–
CCCN(CCC)c1c([N+](=O)[O-])cc(S(=O)(=O)Nc2ccc(Cl)c(Cl)c2)cc1[N+](=O)[O-] [Compound 44, N1-(3,4-Dichloro)phenyl-3,5-dinitro-N4,N4-di-n-propylsulfonilamide]	5.03 ± 0.8	6.7	7.19 ± 0.59	–	–	–	–
CCCN(CCC)c1c([N+](=O)[O-])cc(S(=O)(=O)NCC)cc1[N+](=O)[O-] [Compound 35, N1-Ethyl-3,5-dinitro-N4,N4-di-n-propylsulfonilamide]	> 100	4	–	–	–	–	–
